Measured values from BigSolDB 2.1.

NS(=O)(=O)Cc1noc2ccccc12
solubility (mole fraction)
Conditions	273.15 K	278.15 K	283.15 K	288.15 K	293.15 K	298.15 K	303.15 K	308.15 K	313.15 K
in 1,4-dioxane	–	–	–	0.024	0.0294	0.0354	0.0416	0.0488	0.0563
in 2-butanone	0.0132	0.0154	0.0179	0.0209	0.0244	0.0282	0.0319	0.0358	0.0399
in DMF	0.0192	0.0278	0.0374	0.0469	0.0575	0.0687	0.0812	0.0946	0.108
in acetonitrile	0.00562	0.00691	0.00821	0.00982	0.0114	0.0131	0.0149	0.0171	0.0191
in cyclohexanone	0.00739	0.00898	0.0109	0.0129	0.0155	0.0184	0.0218	0.0262	0.0307
in ethanol	0.00112	0.00135	0.00159	0.00188	0.00221	0.00255	0.0029	0.0033	0.00373
in ethyl acetate	0.00498	–	–	–	–	–	–	–	–
